Tests used:
Format in all cases: cell-based
Ba/F3 BCR-ABL1 E255K = assay: Cell growth inhibitory activity test (CellTiter-Glo); conditions: Mus musculus, BaF3, 72 hours
Excerpt: (§1) The inhibitory effects of the compounds of the examples on the activity of Ba/F3 parental cells, Ba/F3 Bcr-Abl wild-type and mutant cells were detected.
(§2) This test used the Celltiter-Glo (CTG) kit (a homogeneous method for cell viability detection) provided by Promega to determine the cell viability of cultured cells by quantifying ATP. Ba/F3 parental cells were purchased from RIKEN BRC, catalog number RCB0805; other cells containing BCR-ABL1 wild-type and mutants were monoclonal engineered cell lines obtained by transfecting Ba/F3 parental cells with lentiviral plasmids containing WT or corresponding mutations of BCR-ABL1.
(§3) The steps for cell viability detection are as follows: • a) Collect cells in the logarithmic growth phase, prepare a cell suspension and count the cells to calculate the cell concentration. • b) After diluting the cell suspension to the desired concentration, add it to the inner wells of the 96-well plate, and add PBS to the edge wells. Wells containing only culture medium without cells serve as blank controls. • c) In addition to the cell plate used for compound analysis, prepare another 96-well plate as the T0 plate, adding 3-6 blank wells and 3-6 cell wells. Perform CTG assay the next day to measure cell viability, which serves as the T0 viability value for the cells. • d) Place the cell plate in a 37°C, 5% CO2 incubator and culture overnight. • e) The next day, add gradient-diluted compounds at various concentrations, and place the cell plate in a 37°C, 5% CO2 incubator for 72 hours.
(§4) The following nonlinear fitting formula was used to obtain the IC50 (half maximal inhibitory concentration) of the compounds: Y = Bottom + (Top−Bottom)/(1+10(LogIC50−X)∗HillSlope) [formula] • Y: Inhibition rate (%inhibition) • X: Logarithmic value of compound concentration • Top: Maximum response • Bottom: Baseline response • HillSlope: Slope of the curve

Ba/F3 BCR-ABL1 E255V = assay: as above; conditions: Mus musculus, BaF3, 72 hours
Excerpt: as §1, §2, §3, §4

Ba/F3 BCR-ABL1 E355G = assay: as above; conditions: Mus musculus, BaF3, 72 hours
Excerpt: as §1, §2, §3, §4

Ba/F3 BCR-ABL1 E459K = assay: as above; conditions: Mus musculus, BaF3, 72 hours
Excerpt: as §1, §2, §3, §4

Ba/F3 BCR-ABL1 F317L = assay: as above; conditions: Mus musculus, BaF3, 72 hours
Excerpt: as §1, §2, §3, §4

Ba/F3 BCR-ABL1 F359V = assay: as above; conditions: Mus musculus, BaF3, 72 hours
Excerpt: as §1, §2, §3, §4

Ba/F3 BCR-ABL1 G250E = assay: as above; conditions: Mus musculus, BaF3, 72 hours
Excerpt: as §1, §2, §3, §4

Ba/F3 BCR-ABL1 H396P = assay: as above; conditions: Mus musculus, BaF3, 72 hours
Excerpt: as §1, §2, §3, §4

Ba/F3 BCR-ABL1 I502L = assay: as above; conditions: Mus musculus, BaF3, 72 hours
Excerpt: as §1, §2, §3, §4

Ba/F3 BCR-ABL1 M244V = assay: as above; conditions: Mus musculus, BaF3, 72 hours
Excerpt: as §1, §2, §3, §4

Ba/F3 BCR-ABL1 M351T = assay: as above; conditions: Mus musculus, BaF3, 72 hours
Excerpt: as §1, §2, §3, §4

Ba/F3 BCR-ABL1 P223S = assay: as above; conditions: Mus musculus, BaF3, 72 hours
Excerpt: as §1, §2, §3, §4

Ba/F3 BCR-ABL1 Q252H = assay: as above; conditions: Mus musculus, BaF3, 72 hours
Excerpt: as §1, §2, §3, §4

Ba/F3 BCR-ABL1 V299L = assay: as above; conditions: Mus musculus, BaF3, 72 hours
Excerpt: as §1, §2, §3, §4

Ba/F3 BCR-ABL1 WT = assay: as above; conditions: Mus musculus, BaF3, 72 hours
Excerpt: as §1, §2, §3, §4

Ba/F3 BCR-ABL1 Y253H = assay: as above; conditions: Mus musculus, BaF3, 72 hours
Excerpt: as §1, §2, §3, §4

Ba/F3 parental cells = assay: as above; conditions: Mus musculus, BaF3, 72 hours
Excerpt: as §1, §2, §3, §4

[1] = tested on: Ba/F3 BCR-ABL1 E255V/T315I; assay: Cell growth inhibition activity test, single agents and combinations (CellTiter-Glo, Chou-Talalay); conditions: Mus musculus, BaF3; single agent; E255V/T315I; 72 hours; read-out: IC50
Method: A series of cell lines expressing BCR-ABL1 single mutations and compound mutations were constructed based on the Ba/F3 mouse pro-B cell line.
This assay utilized the CellTiter-Glo (CTG) kit provided by Promega, which is a homogeneous method for cell viability detection, measuring the viability of cultured cells by quantifying ATP. Cells were seeded in 96-well plates and treated with different concentrations of test substances. […] At the end of the treatment, CTG reagent (CellTiter-Glo kit) was added according to the manufacturer's instructions to detect cell viability values. Plates were read on a microplate reader (Biotek cytation 3.0). IC50 values were calculated using GraphPad Prism 7.0 software.

O=C(Nc1ccc(OC(F)(F)Cl)cc1)c1cnc(N2CC[C@@H](F)C2)c(-c2cnccn2)c1 [Compound A, (R)-N-(4-(chlorodifluoromethoxy)phenyl)-6-(3-fluoropyrrolidin-1-yl)-5-(pyrazin-2-yl)nicotinamide]
IC50 (Ba/F3 BCR-ABL1 E255K): 1.01 ± 0.08 nM
IC50 (Ba/F3 BCR-ABL1 E255V): 2.73 ± 0.02 nM
IC50 (Ba/F3 BCR-ABL1 E355G): 52.6 ± 0.42 nM
IC50 (Ba/F3 BCR-ABL1 E459K): 3.8 ± 0.22 nM
IC50 (Ba/F3 BCR-ABL1 F317L): 17.2 ± 0.99 nM
IC50 (Ba/F3 BCR-ABL1 F359V): 89.4 ± 8.91 nM
IC50 (Ba/F3 BCR-ABL1 G250E): 2.49 ± 0.18 nM
IC50 (Ba/F3 BCR-ABL1 H396P): 11.7 ± 0.28 nM
IC50 (Ba/F3 BCR-ABL1 I502L): 94.8 ± 1.06 nM
IC50 (Ba/F3 BCR-ABL1 M244V): 26.8 ± 2.26 nM
IC50 (Ba/F3 BCR-ABL1 M351T): 3.52 ± 0.5 nM
IC50 (Ba/F3 BCR-ABL1 P223S): 43.7 ± 4.88 nM
IC50 (Ba/F3 BCR-ABL1 Q252H): 2.38 ± 0.43 nM
IC50 (Ba/F3 BCR-ABL1 V299L): 72.3 ± 5.87 nM
IC50 (Ba/F3 BCR-ABL1 WT): 4.11 ± 0.05 nM
IC50 (Ba/F3 BCR-ABL1 Y253H): 5.6 ± 0.53 nM
IC50 (Ba/F3 parental cells): 10000 nM
IC50 [1]: 151 nM

Source: patent EP4803080A1, “METHOD FOR TREATING LEUKEMIA” (Shenzhen TargetRx Co., Ltd., priority 2023, dated 2025)
